This is an account of results in US20100136118A1, “CALCIUM ABSORPTION ENHANCER” (priority 2007, published 2010).

Entries after “also recorded” stand apart in the source; their conditions may differ.

Type in all cases: physicochemical
Common to all, as to details: organic acid calcium from egg shell mixture (A)

Series [1] can be described thus: sustained release property in simulated gastric cavity (column, 0.1 N aqueous HCl solution). The protocol: Subsequently, 0.1 N aqueous HCl solution simulating a gastric juice as a solvent was passed through this column and separated by a low-pressure chromatography system (Bio-Rad Laboratories, Inc., BioLogic LP Chromatography System) over time. The flow rate of the solvent during the separation was 1.0 mL/min. Then, the calcium ion concentration in each separated solution was measured using Calcium C-test Wako (Wako Pure Chemical Industries, Ltd., Cat. No. 272-21801). The concentration of the organic acid in each separated solution (lactic acid, acetic acid, and citric acid) was measured using F-Kit Lactic Acid, F-Kit Acetic Acid, and F-Kit Citric Acid (Roche Diagnostics K.K., Cat. Nos. 1112821, 148261, and 139076).
The amount of an eluted solvent (mL) and changes in the amount of calcium ions (integrated value) with elution of 0.1 N HCl were measured, and the amount of an eluted solvent (mL) and changes in the amount of each organic acid (integrated value) with elution of 0.1 N HCl were measured.
Using 0.1 N aqueous HCl solution as a solvent, the amount of solvent (mL) eluted in the simulated gastric cavity and changes in the amount of calcium ions (integrated value) with elution of the solvent were evaluated. […]

The nature of series [2]: sustained release property in simulated gastric cavity (column, 0.05 N aqueous HCl solution, diluted gastric juice). Here is the method:
The amount of an eluted solvent (mL) and changes in the amount of calcium ions (integrated value) with elution of 0.05 N HCl were measured, and the amount of an eluted solvent (mL) and changes in the amount of each organic acid (integrated value) with elution of 0.05 N HCl were measured. Among the obtained results, the measurement results regarding the amount of calcium ions (integrated value) are shown in FIG. 9.
Furthermore, as a solvent, 0.05 N aqueous HCl solution was used instead of 0.1 N aqueous HCl solution to simulate a state in which gastric juice in an organism was diluted with drinking water. Except for this condition, the amount of solvent (mL) eluted in the simulated gastric cavity and changes in the amount of calcium ions (integrated value) with elution of the solvent were evaluated in the same manner as in Example 8.
(§1) Using 0.05 N aqueous HCl solution as a solvent, the amount of solvent (mL) eluted in the simulated gastric cavity and changes in the amount of calcium ions (integrated value) with elution of the solvent were evaluated. […]
as §1

A short description of series [3]: sustained release property in simulated intestines (column, distilled water). The protocol: The amount of an eluted solvent (mL) and changes in the amount of calcium ions (integrated value) with elution of distilled water were measured, and the amount of an eluted solvent (mL) and changes in the amount of each organic acid (integrated value) with elution of distilled water were measured. Among the obtained results, the measurement results regarding the amount of calcium ions (integrated value) are shown in FIG. 11.
Furthermore, as a solvent, distilled water was used instead of 0.1 N aqueous HCl solution to simulate a state in which gastric acid was neutralized when a drink or a food was transported from the stomach to the duodenum. Except for this condition, the amount of solvent (mL) eluted in the simulated gastric cavity and changes in the amount of calcium ions (integrated value) with elution of the solvent were evaluated in the same manner as in Example 8.
Using distilled water as a solvent, the amount of solvent (mL) eluted in the simulated gastric cavity and changes in the amount of calcium ions (integrated value) with elution of the solvent were evaluated. […]
Using distilled water as a solvent, the amount of solvent (mL) eluted in the simulated intestine and changes in the amount of calcium ions (integrated value) with elution of the solvent were evaluated. […]

In the case of `CC(O)C(=O)[O-].CC(O)C(=O)[O-].[Ca+2]` (stereo not drawn) [calcium lactate], the “amount of each organic acid (integrated value) vs amount of eluted solvent” value in series [1] is “dissolved first at the stage of the start of measurement”; in series [2] it was “dissolved first”; in series [3] it was “dissolved first at the stage of the start of measurement”.

For `O=C([O-])CC(O)(CC(=O)[O-])C(=O)[O-].O=C([O-])CC(O)(CC(=O)[O-])C(=O)[O-].[Ca+2].[Ca+2].[Ca+2]` [calcium citrate], the “amount of each organic acid (integrated value) vs amount of eluted solvent” value is reported as “started gradually after the start of elution” in series [1], “gradually dissolved; also recorded: dissolved in virtually the same amount” in series [2] and “gradually dissolved” in series [3].
